Experimental findings from US8791143B2, “Anthranilic diamide derivatives having cyclic side-chains” (priority 2010, dated 2014) are described below.

Data set [1] in a line: log P by HPLC on reversed-phase columns (EEC Directive 79/831 Annex V.A8). Format: physicochemical.
The subject of data set [2] is caterpillars of the armyworm (Spodoptera frugiperda). The data set can be described thus: Spodoptera frugiperda test (SPODFR spray treatment). Format: in vivo. The settings on record: Spodoptera frugiperda, 168 h, read-out: activity in % (caterpillars killed).
For data set [3], the system named is larvae of the mustard beetle (Phaedon cochleariae). The data set can be described thus: Phaedon test (PHAECO spray treatment). The settings on record: Phaedon cochleariae, 168 h, read-out: activity in % (beetle larvae killed).
Setting [4] is: reversed-phase C18 HPLC column, pH 2.7, HPLC reversed-phase C18, acidic range pH 2.7 (HCOOH), only or first value of the cell, read-out: log P.
Where [5] appears, read: application rate 100 g/ha, after 7 days.

Where two headings read alike, the source gives them in different places.

In the case of `Cc1cc(Cl)cc(C(=O)NC(C)c2ccc(C(F)(F)F)cc2)c1NC(=O)c1cc(Cn2nnc(C(F)(F)F)n2)nn1-c1ncccc1Cl` (stereo not drawn) [Example 121], the chromatographic logP in data set [1] (setting [4]) was 4.32. Further, the pest or weed control at 100 g/ha in data set [2] (setting [5]) and in data set [3] was 100% each time.

For the compound `Cc1cc(Cl)cc(C(=O)NC(C)c2ccc(F)cc2)c1NC(=O)c1cc(Cn2nnc(C(F)(F)F)n2)nn1-c1ncccc1Cl` (stereo not drawn) [Example 122], the chromatographic logP in data set [1] (pH 2.7, log P) is 4. Also, the pest or weed control at 100 g/ha in data set [2] and in data set [3] was 100% throughout.

Take `Cc1cc(Cl)cc(C(=O)NC(C)c2ccccc2C(F)(F)F)c1NC(=O)c1cc(Cn2nnc(C(F)(F)F)n2)nn1-c1ncccc1Cl` (stereo not drawn) [Example 123]: the chromatographic logP in data set [1] (setting [4]) came to 4.35. In addition, the pest or weed control at 100 g/ha in data set [2] (setting [5]) and in data set [3] was 100% throughout.

In the case of `Cc1cc(Cl)cc(C(=O)NC(C)c2cccc(Cl)c2Cl)c1NC(=O)c1cc(Cn2nnc(C(F)(F)F)n2)nn1-c1ncccc1Cl` (stereo not drawn) [Example 124], in data set [1] (setting [4]), the chromatographic logP was 4.57. Moreover, the pest or weed control at 100 g/ha in data set [2] (setting [5]) and in data set [3] was 100% in each case.

Regarding `Cc1cc(Cl)cc(C(=O)NC(C)c2ccc(Cl)cc2F)c1NC(=O)c1cc(Cn2nnc(C(F)(F)F)n2)nn1-c1ncccc1Cl` (stereo not drawn) [Example 125], in data set [1] (setting [4]), the chromatographic logP came to 4.42. The pest or weed control at 100 g/ha in data set [2] (setting [5]) and in data set [3] was 100% throughout.

For the compound `Cc1cc(Cl)cc(C(=O)NCc2ccc(OC(F)(F)F)cc2)c1NC(=O)c1cc(Cn2nnc(C(F)(F)F)n2)nn1-c1ncccc1Cl` [Example 126], the chromatographic logP in data set [1] (setting [4]) came to 4.46. Moreover, the pest or weed control at 100 g/ha in data set [2] (setting [5]) and in data set [3] was 100% throughout.

Consider `COC(=O)c1ccc(CNC(=O)c2cc(Cl)cc(C)c2NC(=O)c2cc(Cn3nnc(C(F)(F)F)n3)nn2-c2ncccc2Cl)cc1` [Example 127], for which the chromatographic logP in data set [1] (setting [4]) is 3.68. Besides, the pest or weed control at 100 g/ha in data set [2] (setting [5]) and in data set [3] was 100% each time.

On to `Cc1cc(Cl)cc(C(=O)N[C@H](C)c2ccc([N+](=O)[O-])cc2)c1NC(=O)c1cc(Cn2nnc(C(F)(F)F)n2)nn1-c1ncccc1Cl` [Example 128], for which, in data set [1] (setting [4]), the chromatographic logP came out at 3.85. The pest or weed control at 100 g/ha in data set [2] (setting [5]) and in data set [3] was 100% in each case.

`Cc1cc(Cl)cc(C(=O)N[C@@H](C)c2ccc([N+](=O)[O-])cc2)c1NC(=O)c1cc(Cn2nnc(C(F)(F)F)n2)nn1-c1ncccc1Cl` [Example 129]: the chromatographic logP in data set [1] (setting [4]) was 3.86. For the same compound, the pest or weed control at 100 g/ha in data set [2] (setting [5]) and in data set [3] was 100% in each case.

For the compound `Cc1cc(Cl)cc(C(=O)NCc2ccccc2)c1NC(=O)c1cc(Cn2nc(C(F)(F)F)c(C(F)(F)F)n2)nn1-c1ncccc1Cl` [Example 134], in data set [1] (setting [4]), the chromatographic logP came out at 4.52. Further, the pest or weed control at 100 g/ha in data set [2] (setting [5]) and in data set [3] was 100% throughout.

As for `Cc1cc(C#N)cc(C(=O)NCc2ccccc2)c1NC(=O)c1cc(Cn2nc(C(F)(F)F)c(C(F)(F)F)n2)nn1-c1ncccc1Cl` [Example 136], the chromatographic logP in data set [1] (setting [4]) stood at 4.15. Moreover, the pest or weed control at 100 g/ha in data set [2] (setting [5]) and in data set [3] was 100% throughout.

Consider `Cc1cc(C#N)cc(C(=O)NCc2ccc(Cl)c(Cl)c2)c1NC(=O)c1cc(Cn2nnc(C(F)(F)F)n2)nn1-c1ccccc1Cl` [Example 137], for which, in data set [1] (setting [4]), the chromatographic logP turned out to be 3.99. Further, the pest or weed control at 100 g/ha in data set [2] (setting [5]) and in data set [3] was 100% throughout.

As to `Cc1cc(Cl)cc(C(=O)NC(C)c2ccc(Cl)cc2Cl)c1NC(=O)c1cc(Cn2nnc(C(F)(F)F)n2)nn1-c1ncccc1Cl` (stereo not drawn) [Example 141], the chromatographic logP in data set [1] (setting [4]) amounted to 4.67. Besides, the pest or weed control at 100 g/ha in data set [2] (setting [5]) and in data set [3] was 100% in each case.

Turning to `Cc1cc(Cl)cc(C(=O)NC(C)c2ccc(Cl)c(Cl)c2)c1NC(=O)c1cc(Cn2nnc(C(F)(F)F)n2)nn1-c1ncccc1Cl` (stereo not drawn) [Example 142], the chromatographic logP in data set [1] (setting [4]) turned out to be 4.58. Further, the pest or weed control at 100 g/ha in data set [2] (setting [5]) and in data set [3] was 100% each time.

For the compound `Cc1cc(Cl)cc(C(=O)NC(C)c2cccc(F)c2)c1NC(=O)c1cc(Cn2nnc(C(F)(F)F)n2)nn1-c1ncccc1Cl` (stereo not drawn) [Example 143], in data set [1] (pH 2.7, log P), the chromatographic logP worked out at 4. In addition, the pest or weed control at 100 g/ha in data set [2] and in data set [3] was 100% throughout.

`Cc1cc(Cl)cc(C(=O)NC(C)c2cc(Cl)ccc2Cl)c1NC(=O)c1cc(Cn2nnc(C(F)(F)F)n2)nn1-c1ncccc1Cl` (stereo not drawn) [Example 144]: the chromatographic logP in data set [1] (setting [4]) was 4.58. For the same compound, the pest or weed control at 100 g/ha in data set [2] (setting [5]) and in data set [3] was 100% in each case.

On to `Cc1cc(I)cc(C(=O)NCc2ccccc2OC(F)(F)F)c1NC(=O)c1cc(Cn2nnc(C(F)(F)C(F)(F)F)n2)nn1-c1ncccc1Cl` [Example 146], for which, in data set [1] (setting [4]), the chromatographic logP amounted to 4.84. Besides, the pest or weed control at 100 g/ha in data set [2] (setting [5]) and in data set [3] was 100% each time.

With `Cc1cc(I)cc(C(=O)NCc2ccc(OC(F)(F)F)cc2)c1NC(=O)c1cc(Cn2nnc(C(F)(F)C(F)(F)F)n2)nn1-c1ncccc1Cl` [Example 148], the chromatographic logP in data set [1] (setting [4]) was found to be 4.85. For the same compound, the pest or weed control at 100 g/ha in data set [2] (setting [5]) and in data set [3] was 100% throughout.

On to `Cc1cc(I)cc(C(=O)NCc2ccc(OC(F)F)cc2)c1NC(=O)c1cc(Cn2nnc(C(F)(F)C(F)(F)F)n2)nn1-c1ncccc1Cl` [Example 149], for which, in data set [1] (setting [4]), the chromatographic logP came to 4.35. Moreover, the pest or weed control at 100 g/ha in data set [2] (setting [5]) and in data set [3] was 100% throughout.

As to `Cc1cc(F)cc(C(=O)NCc2ccccc2OC(F)(F)F)c1NC(=O)c1cc(Cn2nnc(C(F)(F)F)n2)nn1-c1ncccc1Cl` [Example 154], the chromatographic logP in data set [1] (setting [4]) was found to be 3.92. Moreover, the pest or weed control at 100 g/ha in data set [2] (setting [5]) and in data set [3] was 100% throughout.

Turning to `Cc1cc(F)cc(C(=O)NCc2ccc(OC(F)(F)F)cc2)c1NC(=O)c1cc(Cn2nnc(C(F)(F)F)n2)nn1-c1ncccc1Cl` [Example 155], in data set [1] (setting [4]), the chromatographic logP turned out to be 3.92. Moreover, the pest or weed control at 100 g/ha in data set [2] (setting [5]) and in data set [3] was 100% throughout.

On to `Cc1cc(I)cc(C(=O)NCc2cccc(OC(F)(F)F)c2)c1NC(=O)c1cc(Cn2nnc(C(F)(F)F)n2)nn1-c1ncccc1Cl` [Example 156], for which the chromatographic logP in data set [1] (setting [4]) worked out at 4.47. The pest or weed control at 100 g/ha in data set [2] (setting [5]) and in data set [3] was 100% in each case.

In the case of `Cc1cc(I)cc(C(=O)NCc2ccccc2OC(F)F)c1NC(=O)c1cc(Cn2nnc(C(F)(F)C(F)(F)F)n2)nn1-c1ncccc1Cl` [Example 157], the chromatographic logP in data set [1] (setting [4]) was 4.45. Moreover, the pest or weed control at 100 g/ha in data set [2] (setting [5]) and in data set [3] was 100% in each case.

For `Cc1cc(Cl)cc(C(=O)NCc2ccccc2OC(F)F)c1NC(=O)c1cc(Cn2nnc(C(F)(F)F)n2)nn1-c1ncccc1Cl` [Example 158], the chromatographic logP in data set [1] (setting [4]) is 4. The pest or weed control at 100 g/ha in data set [2] (setting [5]) and in data set [3] was 100% in each case.

`Cc1cc(Cl)cc(C(=O)NCc2cccc(OC(F)F)c2)c1NC(=O)c1cc(Cn2nnc(C(F)(F)F)n2)nn1-c1ncccc1Cl` [Example 159]: the chromatographic logP in data set [1] (setting [4]) amounted to 3.95. Also, the pest or weed control at 100 g/ha in data set [2] (setting [5]) and in data set [3] was 100% each time.
